Assay results: ChEMBL document CHEMBL1201862, “PubChem BioAssay data set” (2004)
The source made the active and inactive calls.

What was measured:
[1] = molecular target: T1, Runt-related transcription factor 1/Core-binding factor subunit beta (Homo sapiens, UniProt Q01196+Q13951); assay: disruptors of Runt domain/CBFb-SMMHC interaction – biochemical, FRET, Cerulean-Runt, Venus-CBFb-SMMHC, uHTS, […] (AID 1434); assay type: protein assay
[2] = molecular target: T1, Runt-related transcription factor 1/Core-binding factor subunit beta; assay: Runt domain/CBFb-SMMHC interaction disruptors – biochemical, TR-FRET (AID 1438); assay type: protein assay
[3] = molecular target: T2, Sphingosine 1-phosphate receptor 4 (Homo sapiens, UniProt O95977); assay: Fluorescence dose response cell-based high throughput screening assay for agonists of the Sphingosine 1-Phosphate Receptor 4 (S1P4). [Related pubchem assays: 1509 (Primary screen.), 1523 (Confirmation screen in triplicates.)]; assay type: functional
T2 sequence (O95977 whole entry): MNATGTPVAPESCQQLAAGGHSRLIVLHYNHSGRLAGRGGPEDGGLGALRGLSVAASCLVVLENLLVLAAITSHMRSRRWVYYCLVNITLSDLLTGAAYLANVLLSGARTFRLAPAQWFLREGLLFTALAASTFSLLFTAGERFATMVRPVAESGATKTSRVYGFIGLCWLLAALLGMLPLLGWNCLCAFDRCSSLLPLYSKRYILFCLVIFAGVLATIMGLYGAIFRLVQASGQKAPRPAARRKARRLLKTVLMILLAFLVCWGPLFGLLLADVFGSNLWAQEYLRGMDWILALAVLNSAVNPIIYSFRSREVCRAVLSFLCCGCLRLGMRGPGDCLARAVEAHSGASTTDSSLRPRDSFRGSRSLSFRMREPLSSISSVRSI

[4] = molecular target: Sphingosine 1-phosphate receptor 1 (Homo sapiens, UniProt P21453); assay: Fluorescence-based counterscreen assay for S1P4 agonists: Cell-based dose response high throughput screening assay to identify agonists of the Sphingosine 1-Phosphate Receptor 1 (S1P1). [Related pubchem assays (depositor defined):AID1509, AID1523, AID1801, AID463107, AID463118, AID463119, AID463122, AID463123, AID463129, AID463225, AID504400, AID504460]; assay type: functional
[5] = molecular target: T3, Mannose-6-phosphate isomerase (Homo sapiens, UniProt P34949); assay: phosphomannose isomerase inhibition – biochemical, fluorescence intensity, confirmation (AID 1535)
T3 sequence (P34949 whole entry): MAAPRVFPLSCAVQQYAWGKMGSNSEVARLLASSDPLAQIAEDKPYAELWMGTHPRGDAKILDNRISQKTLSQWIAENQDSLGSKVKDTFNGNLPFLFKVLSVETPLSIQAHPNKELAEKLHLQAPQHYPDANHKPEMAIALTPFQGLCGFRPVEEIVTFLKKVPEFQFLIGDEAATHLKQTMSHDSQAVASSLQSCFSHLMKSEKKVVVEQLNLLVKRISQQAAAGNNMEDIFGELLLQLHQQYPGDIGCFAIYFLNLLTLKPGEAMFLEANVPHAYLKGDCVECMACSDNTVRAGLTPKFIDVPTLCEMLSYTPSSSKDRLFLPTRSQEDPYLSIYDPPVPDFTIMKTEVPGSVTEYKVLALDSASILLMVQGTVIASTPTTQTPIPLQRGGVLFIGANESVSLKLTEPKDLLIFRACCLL

Phosphomannomutase 2 = Phosphomannomutase 2 (Homo sapiens, UniProt O15305); assay: Counter screen SAR assay for PMM2 inhibitors via a fluorescence intensity assay. [Related pubchem assays (depositor defined):AID1545, AID1574]
[6] = molecular target: T4, Corticotropin-releasing factor receptor 2/Corticotropin-releasing factor-binding protein (Homo sapiens, UniProt P24387+Q13324); assay: activators of CRF receptor 2 with binding protein – uHTS hits, confirmation (AID 602473); assay type: functional; conditions: read-out: EC50_Mean
T4 sequence (Q13324 whole entry): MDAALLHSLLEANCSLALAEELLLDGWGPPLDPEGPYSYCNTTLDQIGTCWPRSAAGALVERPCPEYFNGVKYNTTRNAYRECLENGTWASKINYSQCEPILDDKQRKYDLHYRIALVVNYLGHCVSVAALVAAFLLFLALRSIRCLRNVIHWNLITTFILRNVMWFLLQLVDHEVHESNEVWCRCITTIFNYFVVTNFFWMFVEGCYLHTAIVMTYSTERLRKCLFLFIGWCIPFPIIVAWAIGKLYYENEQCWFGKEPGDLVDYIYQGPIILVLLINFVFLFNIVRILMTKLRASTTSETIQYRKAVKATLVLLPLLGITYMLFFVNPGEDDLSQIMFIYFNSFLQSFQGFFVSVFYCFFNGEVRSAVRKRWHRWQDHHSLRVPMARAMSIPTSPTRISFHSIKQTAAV
T4 sequence (P24387 whole entry): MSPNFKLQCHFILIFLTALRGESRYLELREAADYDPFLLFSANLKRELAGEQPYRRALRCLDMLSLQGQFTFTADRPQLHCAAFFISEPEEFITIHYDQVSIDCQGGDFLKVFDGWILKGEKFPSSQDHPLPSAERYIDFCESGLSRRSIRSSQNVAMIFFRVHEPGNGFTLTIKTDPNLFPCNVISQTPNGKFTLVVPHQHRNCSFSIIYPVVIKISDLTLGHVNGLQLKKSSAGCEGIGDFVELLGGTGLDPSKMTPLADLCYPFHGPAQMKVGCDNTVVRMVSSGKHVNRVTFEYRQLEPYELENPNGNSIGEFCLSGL

Troponin, cardiac muscle = Troponin, cardiac muscle (Homo sapiens, UniProt P19429+P45379+P63316); assay: Fluorescence-based biochemical high throughput dose response assay for activators of the calcium sensitivity of cardiac Regulated Thin Filaments (RTF). [Related pubchem assays (depositor defined):AID493008, AID493018, AID504382, AID504383]; assay type: protein-complex assay
[7] = viability loss of HPDE-C7K cells – cell-based, fluorescence, HTS, primary screen (AID 431); assay type: functional; conditions: Homo sapiens
[8] = molecular target: T5, Calpain-2 catalytic subunit (Sus scrofa, UniProt P43367); assay: m-calpain protease blockers, concentration series – biochemical, fluorogenic peptide substrate, dose response (AID 1420); assay type: functional
T5 sequence (P43367 whole entry): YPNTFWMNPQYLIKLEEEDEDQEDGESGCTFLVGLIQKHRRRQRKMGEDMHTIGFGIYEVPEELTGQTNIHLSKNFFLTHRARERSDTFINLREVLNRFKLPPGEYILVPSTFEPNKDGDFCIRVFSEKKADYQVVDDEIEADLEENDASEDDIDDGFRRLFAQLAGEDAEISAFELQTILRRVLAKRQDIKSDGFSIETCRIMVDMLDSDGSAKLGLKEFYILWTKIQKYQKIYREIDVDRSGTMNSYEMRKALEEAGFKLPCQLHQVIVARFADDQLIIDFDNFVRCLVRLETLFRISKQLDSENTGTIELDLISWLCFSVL

[9] = molecular target: T6, E3 ubiquitin-protein ligase XIAP (Homo sapiens, UniProt P98170); assay: small molecules displacing peptide from XIAP – biochemical, IAP family, fluorescence polarization (AID 1018); assay type: functional
[10] = HPDE-C7 pancreatic duct cell viability loss – fluorescence, HTS (AID 430); assay type: functional, cell-based; conditions: Homo sapiens
[11] = molecular target: T6, E3 ubiquitin-protein ligase XIAP; assay: Counter Screen using XIAP-Bir3 for Chemical Antagonists of Bir1/2 domains of IAP-family anti-apoptotic proteins. [Related pubchem assays (depositor defined):AID1018, AID1449, AID1514, AID1638, AID1749, AID1750, AID488957, AID488963]
[12] = molecular target: T7, Tyrosine-protein phosphatase non-receptor type 7 (Homo sapiens, UniProt P35236); assay: inhibition of hematopoietic tyrosine phosphatase HePTP – biochemical, set 2, SAR follow-up (AID 449736); assay type: functional
T7 sequence (P35236 whole entry): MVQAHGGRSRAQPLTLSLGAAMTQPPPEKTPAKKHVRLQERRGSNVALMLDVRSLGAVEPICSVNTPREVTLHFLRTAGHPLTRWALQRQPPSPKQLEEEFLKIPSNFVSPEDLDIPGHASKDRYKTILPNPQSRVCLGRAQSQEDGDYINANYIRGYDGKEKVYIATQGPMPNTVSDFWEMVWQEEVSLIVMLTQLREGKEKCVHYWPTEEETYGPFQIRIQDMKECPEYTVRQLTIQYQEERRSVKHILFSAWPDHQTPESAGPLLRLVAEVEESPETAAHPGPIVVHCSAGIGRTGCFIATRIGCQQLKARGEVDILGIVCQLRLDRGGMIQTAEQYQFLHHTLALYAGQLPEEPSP

[13] = molecular target: T8, Delta-type opioid receptor (Homo sapiens, UniProt P41143); assay: delta opioid receptor blockers – image-based, SAR follow-up (AID 2357); assay type: functional
Mu-type opioid receptor [14] = molecular target: T9, Mu-type opioid receptor (Homo sapiens, UniProt P35372); assay: mu opioid receptor blockers – image-based, SAR follow-up (AID 2420); assay type: functional;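 further: compounds added before stimulation of receptor with agonist DAMGO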
Mu-type opioid receptor [15] = molecular target: T9, Mu-type opioid receptor; assay: mu opioid receptor activators, image-based, SAR follow-up (AID 2352); assay type: functional
[16] = molecular target: T8, Delta-type opioid receptor; assay: DOR agonists, SAR follow-up, image-based (AID 2370); assay type: functional
[17] = molecular target: T10, Kappa-type opioid receptor (Homo sapiens, UniProt P41145); assay: kappa opioid receptor blockers, image-based, SAR follow-up (AID 2348); assay type: functional
[18] = molecular target: T10, Kappa-type opioid receptor; assay: kappa opioid receptor activation potency – imaging, image-based, SAR follow-up (AID 2359); assay type: functional
[19] = molecular target: T10, Kappa-type opioid receptor; assay: SAR analysis of small molecule agonists of the kappa opioid receptor via a luminescent beta-arrestin assay. [Related pubchem assays (depositor defined):AID1777, AID1786, AID1966, AID2133, AID2136, AID2348, AID2352, AID2357, AID2359, AID2370, AID2420, AID2478, AID2491, AID2492, AID2493, AID2497, AID2498, AID2500, AID449737, AID488822, AID488842]; assay type: functional
[20] = molecular target: T11, Alkaline phosphatase, tissue-nonspecific isozyme (Homo sapiens, UniProt P05186); assay: activation of tissue-nonspecific alkaline phosphatase – biochemical, TNAP isozyme, human IAP uHTS hits, selectivity assay for human IAP activator project, dose response (AID 488886); assay type: functional;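 further: potency of compounds raising TNAP activity as a selectivity check on IAP activators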
T11 sequence (P05186 whole entry): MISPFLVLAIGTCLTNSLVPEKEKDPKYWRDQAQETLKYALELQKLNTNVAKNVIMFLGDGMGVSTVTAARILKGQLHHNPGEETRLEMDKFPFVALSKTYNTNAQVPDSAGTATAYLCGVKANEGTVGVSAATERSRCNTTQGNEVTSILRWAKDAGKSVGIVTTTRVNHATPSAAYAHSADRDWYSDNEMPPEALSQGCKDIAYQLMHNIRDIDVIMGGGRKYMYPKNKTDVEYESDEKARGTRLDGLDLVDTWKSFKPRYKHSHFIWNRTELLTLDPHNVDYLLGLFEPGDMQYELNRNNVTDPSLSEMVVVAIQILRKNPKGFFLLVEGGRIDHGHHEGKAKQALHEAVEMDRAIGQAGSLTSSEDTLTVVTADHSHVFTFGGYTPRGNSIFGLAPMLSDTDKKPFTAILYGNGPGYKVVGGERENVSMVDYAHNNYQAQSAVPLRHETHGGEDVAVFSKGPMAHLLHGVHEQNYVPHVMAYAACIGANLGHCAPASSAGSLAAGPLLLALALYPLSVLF

[21] = molecular target: T12, Intestinal-type alkaline phosphatase (Homo sapiens, UniProt P09923); assay: activation of human intestinal alkaline phosphatase – biochemical, luminescent, uHTS hits, set 2, dose response (AID 488817); assay type: functional;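 further: potency of activators that raise enzyme activity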
[22] = molecular target: Intestinal-type alkaline phosphatase (Mus musculus, UniProt P24822); assay: PubChem AID 488874; assay type: functional
[23] = molecular target: T13, RNA-binding protein pos-1 (Caenorhabditis elegans, UniProt G5EF15); assay: disruptors of C. elegans POS-1 RNA interaction – biochemical, fluorescence polarization, dose response (AID 1964);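 further: purified POS-1 fused to maltose binding protein made in E. coli; potency of compounds blocking POS-1 binding to fluorescent RNA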
T13 sequence (G5EF15 whole entry): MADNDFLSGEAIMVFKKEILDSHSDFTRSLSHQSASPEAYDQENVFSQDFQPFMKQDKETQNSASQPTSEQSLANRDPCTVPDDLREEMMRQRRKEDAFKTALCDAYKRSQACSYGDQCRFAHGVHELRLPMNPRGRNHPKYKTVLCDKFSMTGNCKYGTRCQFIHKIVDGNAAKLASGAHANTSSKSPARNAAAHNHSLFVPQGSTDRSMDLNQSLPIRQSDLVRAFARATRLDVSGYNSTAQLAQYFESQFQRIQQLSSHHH

[24] = molecular target: T12, Intestinal-type alkaline phosphatase; assay: human intestinal alkaline phosphatase activators, dose response, biochemical, luminescence, uHTS hits (AID 463120); assay type: functional

## CCNc1sc(C(=O)c2cccs2)c(N)c1-c1nc2ccccc2s1
[1]
  IC50: > 100 µM (inactive)
[2]
  IC50: 63.2 µM (inactive)

## CCCN(CCC)c1ccc(/C=C/c2ccc3cc(OCC)ccc3n2)cc1
[3]
  EC50: > 49.8 µM (not active)
[4]
  EC50: > 5.53 µM (inactive)

## Clc1nss/c1=N\c1ccc2ncccc2c1
[5]
  IC50: 23.6 µM (active)
Phosphomannomutase 2
  IC50: > 100 µM (inactive)

## Cc1ccc[n+](-c2[n-]c(=O)sc2C=O)c1
[6]
  EC50: 11.5 µM (active)
Troponin, cardiac muscle
  EC50: 2.18 µM (active)

## COc1ccccc1-c1nnc(SCC(=O)NCc2c(C)c(Cl)cc(C(C)C)c2O)o1
[7]
  EC50: 12 µM (active)
[8]
  IC50: 15.8 µM (not active)
[9]
  IC50: > 100 µM (not active)
[10]
  EC50: 10.1 µM (active)
[11]
  IC50: > 100 µM (inactive)

## NS(=O)(=O)c1ccc(NC(=O)N2CCN(Cc3ccccc3)CC2)cc1
[12]
  IC50: > 100 µM (inactive)

## COc1ccc(C)cc1NC(=O)CSc1nnc(-c2ccccn2)n1Cc1ccco1
[13]
  IC50: > 32 µM (inactive)
Mu-type opioid receptor [14]
  IC50: > 32 µM (inactive)
Mu-type opioid receptor [15]
  EC50: > 32 µM (inactive)
[16]
  EC50: > 32 µM (inactive)
[17]
  IC50: > 32 µM (inactive)
[18]
  EC50: > 32 µM (inactive)
[19]
  EC50: > 10 µM (inactive)

## Cc1n[nH]c(S/C(=C/c2ccc(-c3ccc(Cl)cc3)o2)C(=O)O)n1
[20]
  EC50: > 100 µM (inactive)
[21]
  EC50: 12.1 µM (active)
[22]
  IC50: 54.3 µM (active)
[23]
  EC50: 25.4 µM (active)
[24]
  EC50: 12.8 µM (active)
